From patent US8871264B2, “Immediate release tablet formulations” (AstraZeneca AB, priority 2009, dated 2014)
Where two headings read alike, the source gives them in different places.

Key:
[1] = phosphate buffer pH 6.8, 37° C., 75 rpm, n=6; for Dissoln. % 10 min: tablets of Example 12, 10 min; for Dissoln. % 20 min: tablets of Example 12, 20 min; for Dissoln. % 30 min: tablets of Example 12, 30 min; for Dissoln. % 45 min: tablets of Example 12, 45 min; for Dissoln. % 75 min: tablets of Example 12, 75 min; for Dissolution % 10 min: tablets of Example 13, 10 min; for Dissolution % 20 min: tablets of Example 13, 20 min; for Dissolution % 30 min: tablets of Example 13, 30 min; for Dissolution % 45 min: tablets of Example 13, 45 min; for Dissoln % 75 min: tablets of Example 13, 75 min
[2] = test system: type II diabetic patients; details: for adjusted mean change in HbA1c from baseline: after 24 weeks; for adjusted mean change in HbA1c from baseline / adjusted mean change in FPG from baseline at Week 24: type 2 diabetes patients; for change in total body weight: at 24 weeks
Experimental: The data represent findings from a randomized, double-blind, placebo-controlled study of 546 individuals with type 2 diabetes whose HbA1c was greater than or equal to 7.0 percent and less than or equal to 10 percent at baseline. […] Patients in all arms also received metformin (greater than or equal to 1500 mg/d). […] Exploratory endpoints included body weight decrease of greater than or equal to 5 percent or greater than or equal to 10 percent as well as body weight percent change from baseline.

[3] = combination of metformin and dapagliflozin, 24 weeks, compared to placebo plus metformin
[4] = dapagliflozin 2.5 mg plus metformin
[5] = dapagliflozin 5 mg plus metformin
[6] = dapagliflozin 10 mg plus metformin

Structure (SMILES)	Dissoln. % 10 min [1]	Dissoln. % 20 min [1]	Dissoln. % 30 min [1]	Dissoln. % 45 min [1]	Dissoln. % 75 min [1]	Dissolution % 10 min [1]	Dissolution % 20 min [1]	Dissolution % 30 min [1]	Dissolution % 45 min [1]	Dissoln % 75 min [1]	also measured
CN(C)C(=N)N=C(N)N [Metformin]	41%	80%	97%	100%	100%	41%	81%	98%	100%	100%	–
CCOc1ccc(Cc2cc([C@@H]3O[C@H](CO)[C@@H](O)[C@H](O)[C@H]3O)ccc2Cl)cc1 [Dapagliflozin, (2S,3R,4R,5S,6R)-2-(4-chloro-3-(4-ethoxybenzyl)phenyl)-6-(hydroxymethyl)tetrahydro-2H-pyran-3,4,5-triol]	38%	78%	96%	99%	99%	37%	77%	95%	97%	97%	fasting plasma glucose (FPG) levels [2, 3]: reduced; glycosylated hemoglobin levels (HbA1c) [2, 3]: reduced; mean reductions in body weight ([2]; compared to individuals taking placebo, 24 weeks): statistically greater mean reductions; patients achieving weight losses greater than or equal to 5 percent ([2]; compared to placebo, exploratory endpoint, 24 weeks): more patients; adjusted mean change in HbA1c from baseline [2, 4]: −0.67%; change in total body weight [2, 4]: -2.21 kg; adjusted mean change in FPG from baseline at Week 24 [2, 4]: -17.8 mg/dL; adjusted mean change in HbA1c from baseline [2, 5]: −0.70%; change in total body weight [2, 5]: -3.04 kg; adjusted mean change in HbA1c from baseline [2, 6]: −0.84%; change in total body weight [2, 6]: -2.86 kg; adjusted mean change in FPG from baseline at Week 24 [2, 6]: −23.5 mg/dL/dl
